Results as given in paper PMC4113215 (Biochemical and biophysical research communications, 2014).

Key:
[1] = molecular target: T1, prDMGDH-var2 (precursor DMGDHvar-2) (Rattus norvegicus, UniProt Q63342); assay: X-ray crystal structure, […] Å; type: binding; conditions: covalent; histidyl(N3)-(8alpha)FAD at His84; THF also bound
T1 sequence (Q63342 1-857): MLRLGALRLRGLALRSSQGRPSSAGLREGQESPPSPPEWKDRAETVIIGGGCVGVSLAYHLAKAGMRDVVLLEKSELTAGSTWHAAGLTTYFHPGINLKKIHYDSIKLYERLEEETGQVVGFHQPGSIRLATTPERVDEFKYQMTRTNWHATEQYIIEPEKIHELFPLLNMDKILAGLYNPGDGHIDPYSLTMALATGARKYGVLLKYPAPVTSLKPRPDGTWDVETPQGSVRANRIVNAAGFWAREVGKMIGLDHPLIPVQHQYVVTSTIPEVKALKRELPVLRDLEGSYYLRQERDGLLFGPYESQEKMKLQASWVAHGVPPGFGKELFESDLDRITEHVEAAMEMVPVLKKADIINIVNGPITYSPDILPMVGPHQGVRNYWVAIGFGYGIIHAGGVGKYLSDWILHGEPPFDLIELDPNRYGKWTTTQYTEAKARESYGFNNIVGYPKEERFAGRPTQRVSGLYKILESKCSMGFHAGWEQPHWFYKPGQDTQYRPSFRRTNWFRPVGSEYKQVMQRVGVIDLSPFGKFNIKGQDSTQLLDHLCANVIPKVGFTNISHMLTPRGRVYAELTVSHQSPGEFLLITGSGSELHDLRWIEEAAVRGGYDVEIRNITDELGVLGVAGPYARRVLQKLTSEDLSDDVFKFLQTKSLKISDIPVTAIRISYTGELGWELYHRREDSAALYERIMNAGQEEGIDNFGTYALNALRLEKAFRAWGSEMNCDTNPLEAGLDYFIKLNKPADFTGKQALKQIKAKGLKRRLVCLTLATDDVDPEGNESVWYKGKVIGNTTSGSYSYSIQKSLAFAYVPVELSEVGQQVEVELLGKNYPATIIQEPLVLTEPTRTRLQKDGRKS

[2] = molecular target: T2, mDMGDH (mature rat DMGDH) (Rattus norvegicus, UniProt Q63342); assay: X-ray crystal structure, […] Å; type: binding; conditions: covalent; histidyl(N3)-(8alpha)FAD at His84; no folate
T2 sequence (Q63342 22-857): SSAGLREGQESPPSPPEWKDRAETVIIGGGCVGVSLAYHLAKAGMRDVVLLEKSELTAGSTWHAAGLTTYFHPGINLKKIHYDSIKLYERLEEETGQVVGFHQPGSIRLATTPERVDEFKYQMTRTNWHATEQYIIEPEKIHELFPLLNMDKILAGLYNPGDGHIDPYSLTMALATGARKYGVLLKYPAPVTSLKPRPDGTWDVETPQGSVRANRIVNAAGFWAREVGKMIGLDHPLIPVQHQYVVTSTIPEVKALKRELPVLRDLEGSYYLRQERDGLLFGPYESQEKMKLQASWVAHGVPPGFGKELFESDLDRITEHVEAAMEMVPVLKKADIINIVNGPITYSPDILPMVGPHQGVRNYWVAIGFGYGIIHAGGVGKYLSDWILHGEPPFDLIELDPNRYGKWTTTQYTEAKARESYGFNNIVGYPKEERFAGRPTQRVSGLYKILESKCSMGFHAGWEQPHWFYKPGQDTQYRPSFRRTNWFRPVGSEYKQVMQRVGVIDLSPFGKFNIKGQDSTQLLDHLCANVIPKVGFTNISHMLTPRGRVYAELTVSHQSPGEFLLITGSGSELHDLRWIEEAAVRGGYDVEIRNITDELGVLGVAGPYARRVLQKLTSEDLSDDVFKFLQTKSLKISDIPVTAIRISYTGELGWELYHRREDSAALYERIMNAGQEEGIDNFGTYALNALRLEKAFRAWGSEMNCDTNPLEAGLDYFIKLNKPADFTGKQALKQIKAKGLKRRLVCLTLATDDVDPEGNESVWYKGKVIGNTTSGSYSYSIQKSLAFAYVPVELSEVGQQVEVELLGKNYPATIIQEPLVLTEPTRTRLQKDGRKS

Compound: Cc1cc2nc3c(=O)[nH]c(=O)nc-3n(C[C@H](O)[C@H](O)[C@H](O)COP(=O)(O)OP(=O)(O)OC[C@H]3O[C@@H](n4cnc5c(N)ncnc54)[C@H](O)[C@@H]3O)c2cc1C [FAD]
- X-ray crystal structure, 1.85 Å [1]: two covalently bound FAD molecules, two folate molecules
- X-ray crystal structure, 2.32 Å [2]: N-terminal domain covalently binds cofactor FAD through His84
